Test results reported in ChEMBL document CHEMBL3045246, “Investigation on the substitution effects of the flavonoids as potent anticancer agents: a structureactivity relationships study” (Med Chem Res, 2012).

Columns and labels:
[1] = system: HepG2; experiment: Cytotoxicity against Homo sapiens (human) HepG2 cells after 48 hr by MTT reduction assay; type: functional, cell-based; details: HepG2, 48 h
[2] = system: SMMC-7721; experiment: Cytotoxicity against Homo sapiens (human) SMMC7721 cells after 48 hr by MTT reduction assay; type: functional, cell-based; details: SMMC-7721, 48 h
[3] = target: Cyclin-dependent kinase 1/cyclin B1 (Homo sapiens, UniProt P06493); experiment: Inhibition of CDK1/Cyclin B (unknown origin) by Z-LYTE assay; type: protein-complex assay
Sequence of Cyclin-dependent kinase 1/cyclin B1 (P06493 whole entry): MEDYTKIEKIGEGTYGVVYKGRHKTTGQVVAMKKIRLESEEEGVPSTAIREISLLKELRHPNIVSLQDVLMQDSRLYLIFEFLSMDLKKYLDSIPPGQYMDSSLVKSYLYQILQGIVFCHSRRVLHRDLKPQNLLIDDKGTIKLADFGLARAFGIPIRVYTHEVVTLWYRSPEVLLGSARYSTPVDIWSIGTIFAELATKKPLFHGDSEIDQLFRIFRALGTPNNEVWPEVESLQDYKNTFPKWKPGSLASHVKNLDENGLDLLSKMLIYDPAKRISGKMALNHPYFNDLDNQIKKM
Sequence of Cyclin-dependent kinase 1/cyclin B1 (P14635 whole entry, further chain): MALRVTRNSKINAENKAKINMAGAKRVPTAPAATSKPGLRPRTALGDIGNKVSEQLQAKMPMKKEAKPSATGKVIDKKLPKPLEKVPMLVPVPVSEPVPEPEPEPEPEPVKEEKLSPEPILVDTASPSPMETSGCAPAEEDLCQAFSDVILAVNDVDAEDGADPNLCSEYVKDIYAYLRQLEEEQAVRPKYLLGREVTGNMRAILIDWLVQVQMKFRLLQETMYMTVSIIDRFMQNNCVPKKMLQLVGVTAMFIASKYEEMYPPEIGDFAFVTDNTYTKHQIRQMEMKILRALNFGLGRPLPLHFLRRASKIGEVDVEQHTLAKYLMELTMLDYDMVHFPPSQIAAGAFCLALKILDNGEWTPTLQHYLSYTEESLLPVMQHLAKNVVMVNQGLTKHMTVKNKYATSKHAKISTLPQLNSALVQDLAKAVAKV

Row | IC50 [3] | Compound | IC50 [1] | IC50 [2]
1 | – | Cc1ccc2oc(-c3ccc(N)cc3)cc(=O)c2c1 | 21.3 µM | –
2 | – | CN1CCN(Cc2ccc3c(=O)cc(-c4ccccc4Cl)oc3c2)CC1 | 14.2 µM | 12.9 µM
3 | – | O=c1cc(-c2ccccc2Cl)oc2cc(CN3CCNCC3)ccc12 | 2.58 µM | 1.91 µM
4 | – | CN(C)Cc1ccc2c(=O)cc(-c3ccccc3Cl)oc2c1 | – | 28.2 µM
5 | – | O=c1cc(-c2ccc(Cl)cc2)oc2ccc(CN3CCCCC3)cc12 | 14 µM | 16.2 µM
6 | – | O=c1cc(-c2ccc(Cl)cc2)oc2ccc(CN3CCNCC3)cc12 | 2.69 µM | 1.51 µM
7 | – | CC[N+](CC)(CC)Cc1ccc2oc(-c3ccccc3Cl)cc(=O)c2c1 | 61 µM | –
8 | – | Nc1ccc(-c2cc(=O)c3cc(CN4CCCCC4)ccc3o2)cc1 | 2.64 µM | 3.68 µM
9 | – | Cc1ccc2c(=O)cc(-c3ccc(Cl)cc3)oc2c1 | 6.83 µM | –
10 | – | Cc1ccc2c(=O)cc(-c3ccccc3Cl)oc2c1 | 28.3 µM | –
11 | – | Cc1ccc2c(=O)cc(-c3ccc(N)cc3)oc2c1 | 40.5 µM | –
12 | – | CN1CCN(Cc2ccc3c(=O)cc(-c4ccc([N+](=O)[O-])cc4)oc3c2)CC1 | – | 10.7 µM
13 | 4.84 µM | O=c1cc(-c2ccc([N+](=O)[O-])cc2)oc2c(CN3CCNCC3)cc(Cl)cc12 | 0.243 µM | 1.1 µM
14 | – | CN(C)Cc1cc(Cl)cc2c(=O)cc(-c3ccc([N+](=O)[O-])cc3)oc12 | 6.19 µM | 56.5 µM
15 | 2.14 µM | O=c1cc(-c2ccc([N+](=O)[O-])cc2)oc2c(Cn3ccnc3)cc(Cl)cc12 | 2.94 µM | 1.2 µM
16 | 2.06 µM | CCN(CC)Cc1cc(Cl)cc2c(=O)cc(-c3ccccc3Cl)oc12 | 7.94 µM | 0.81 µM
17 | – | O=c1cc(-c2ccccc2Cl)oc2c(CN3CCCCC3)cc(Cl)cc12 | 10.7 µM | 3.4 µM

Row | IC50 [3] | Compound | IC50 [1] | IC50 [2]
18 | – | CN1CCN(Cc2cc(Cl)cc3c(=O)cc(-c4ccccc4Cl)oc23)CC1 | – | 3.1 µM
19 | – | O=c1cc(-c2ccccc2Cl)oc2c(CN3CCOCC3)cc(Cl)cc12 | 6.81 µM | 13.2 µM
20 | – | O=c1cc(-c2ccccc2Cl)oc2c(CN3CCNCC3)cc(Cl)cc12 | 18.7 µM | 2.69 µM
21 | – | CN(C)Cc1cc(Cl)cc2c(=O)cc(-c3ccccc3Cl)oc12 | 1.87 µM | 1.14 µM
22 | – | O=c1cc(-c2ccccc2Cl)oc2c(Cn3ccnc3)cc(Cl)cc12 | 3.27 µM | 1.07 µM
23 | 2.17 µM | O=c1cc(-c2ccc(Cl)cc2)oc2c(CN3CCOCC3)cc(Cl)cc12 | 6.33 µM | 15.3 µM
24 | – | Cc1ccc2oc(-c3ccccc3Cl)cc(=O)c2c1 | 6.23 µM | 15.1 µM
25 | – | CN1CCN(Cc2ccc3oc(-c4ccc([N+](=O)[O-])cc4)cc(=O)c3c2)CC1 | – | 19 µM
26 | – | Cc1cc(Cl)cc2c(=O)cc(-c3ccc(N)cc3)oc12 | 11.9 µM | –
27 | 2.21 µM | CCN(CC)Cc1cccc2c(=O)cc(-c3ccc([N+](=O)[O-])cc3)oc12 | 28.8 µM | –
28 | 8.13 µM | CN1CCN(Cc2cccc3c(=O)cc(-c4ccc([N+](=O)[O-])cc4)oc23)CC1 | 2.94 µM | 1.19 µM
29 | – | CCN(CC)Cc1cc(Cl)cc2c(=O)cc(-c3ccc([N+](=O)[O-])cc3)oc12 | 1.19 µM | 2.99 µM
30 | – | O=c1cc(-c2ccc([N+](=O)[O-])cc2)oc2c(CN3CCCCC3)cc(Cl)cc12 | 8.91 µM | 1.09 µM
31 | 6.22 µM | CN1CCN(Cc2cc(Cl)cc3c(=O)cc(-c4ccc([N+](=O)[O-])cc4)oc23)CC1 | 1.76 µM | 5.21 µM
32 | – | O=c1cc(-c2ccc([N+](=O)[O-])cc2)oc2cc(CN3CCNCC3)ccc12 | 4.53 µM | 2.03 µM
33 | – | CCN(CC)Cc1ccc2c(=O)cc(-c3ccccc3Cl)oc2c1 | 10.7 µM | –
34 | – | O=c1cc(-c2ccccc2Cl)oc2cc(CN3CCCCC3)ccc12 | 3.64 µM | –
